Values of other authors, collected in patent publication US20050069593A1, “Nutritional supplement containing 7-Keto-DHEA and conjugated linoleic acid” (LIFE TIME FITNESS, Inc., priority 2003, published 2005).

Test system: brown adipose tissue
Settings: in vitro; Dulloo, et al., Int. J. Obes. Relat. Metab. Disord. 24, 252 (2000)

## O=C(O[C@@H]1Cc2c(O)cc(O)cc2O[C@@H]1c1cc(O)c(O)c(O)c1)c1cc(O)c(O)c(O)c1 [EGCG, epigallocatechin gallate]
  respiration rate of brown adipose tissue: increased
